Data on 38 compounds can be found in patent US20170273922A1, “UREA AND BIS-UREA BASED COMPOUNDS AND ANALOGUES THEREOF USEFUL IN THE TREATMENT OF ANDROGEN RECEPTOR MEDIATED DISEASES OR DISORDERS” (THE ROYAL INSTITUTION FOR THE ADVACEMENT OF LEARNING/MCGILL …, priority 2014, published 2017).

The IC50 is the point on the concentration scale where inhibition reaches its midpoint.

Common to all, as to format: cell-based
Data set [1] concerns LNCaP cells. In words: MTT assay (cytotoxicity), LNCaP cells. To be noted: 72 h. The protocol:
(§1) MTT assays: LNCaP, 22Rv1, Du145, H1975, A549, MB231 and MCF-7 cells are maintained in RPMI 1640 supplemented with 10% FBS. Cells were seeded at a density of 6-7×10^3 cells per well in 96-well plates. After overnight incubation, cells in fresh RPMI 1640 supplemented with 10% FBS were exposed to DMSO vehicle control or test compounds at designated concentrations for 72 h. Viable cells were evaluated by MTT assays. Experiments were performed in triplicate and repeated at least twice.
(In general: Tetrazolium dyes change colour on reduction, which living cells bring about.)

Data set [2] deals with DU145 cells. In words: MTT assay (cytotoxicity), DU145 cells. Particulars: 72 h. The protocol: as §1
Data set [3] has as its system 22Rv1 cells. In words: MTT assay (cytotoxicity), 22Rv1 cells. To be noted: 72 h. The protocol: as §1
Data set [4] is described as follows: MTT assay (cytotoxicity), LNCaP cells. To be noted: human, LNCaP cells, 72 h treatment, Table 6.1. As to the method: as §1
A short description of data set [5]: MTT assay (cytotoxicity), 22Rv1 cells. To be noted: human, 22Rv1 cells, 72 h treatment, Table 6.1. The protocol:
as §1

With `O=C(N/C=C/c1cccc(C(F)(F)F)c1)Nc1cccc(C(F)(F)F)c1` [Compound 403], the values for the IC50 in data set [1] (Table 2.2) and in data set [2] (Table 2.2) were 12.3 µM and more than 20 µM, respectively.
For the compound `O=C(N/C=C/c1ccccc1C(F)(F)F)Nc1ccc([N+](=O)[O-])c(C(F)(F)F)c1` [Compound 404], the half-inhibitory concentration (IC50) in data set [1] (Table 2.2) was determined as 9.3 µM; in data set [2] (Table 2.2) it was 16.4 µM.
Taken in the same sequence, the figures for `N#Cc1ccc(NC(=O)N/C=C/c2ccccc2C(F)(F)F)cc1` [Compound 405] were 3.4 µM and 8.3 µM.
In the case of `O=C(N/C=C/c1ccccc1C(F)(F)F)Nc1cccc(C(F)(F)F)c1` [Compound 406], half-maximal inhibition in data set [1] (Table 2.2) (IC50) was put at 14.4 µM.
Regarding `O=C(N/C=C/c1ccc(C(F)(F)F)cc1)Nc1ccc([N+](=O)[O-])c(C(F)(F)F)c1` [Compound 407], the values for the IC50 in data set [1] (Table 2.2) and in data set [2] (Table 2.2) were 9.6 µM and 15.3 µM, respectively.
In turn, `O=C(N/C=C/c1ccc(C(F)(F)F)cc1)Nc1cccc(C(F)(F)F)c1` [Compound 408] came in with an IC50 in data set [1] (Table 2.2) of 15.6 µM.
As to `O=C(N/C=C/c1cccc(F)c1)Nc1ccc([N+](=O)[O-])c(C(F)(F)F)c1` [Compound 412], the results for the IC50 in data set [1] (Table 2.2) and in data set [3] (Table 2.2) were 18.8 µM and more than 20 µM, respectively.
In the case of `O=C(N/C=C/c1cccc(C(F)(F)F)c1)Nc1ccccc1` [Compound 413], in data set [1] (Table 2.2), the IC50 is more than 20 µM.
`O=C(N/C=C/c1cccc(F)c1)Nc1cccc(C(F)(F)F)c1` [Compound 414]: the IC50 stood at 3.8 µM in data set [1] (Table 2.2), 8.2 µM in data set [3] (Table 2.2) and 7.8 µM in data set [2] (Table 2.2).
The like results for `O=C(N/C=C/c1ccccc1)Nc1cccc(C(F)(F)F)c1` [Compound 415] were, in that order, 6.6 µM, 11 µM and 14 µM.
Regarding `N#Cc1ccc(NC(=O)N/C=C/c2cccc(C(F)(F)F)c2)cc1` [Compound 416], the figures for the IC50 in data set [1] (Table 2.2), in data set [3] (Table 2.2) and in data set [2] (Table 2.2) were 1.6 µM, 3.6 µM and 2.6 µM, respectively.
Taken in the same sequence, the figures for `COc1cccc(NC(=O)N/C=C/c2cccc(C(F)(F)F)c2)c1` [Compound 417] were 14.6 µM, 10.8 µM and 12.2 µM.
The like results for `N#Cc1ccc(NC(=O)N/C=C/c2ccc(C(F)(F)F)cc2)cc1C(F)(F)F` [Compound 421] were, in that order, 1.4 µM, 7.2 µM and 3.4 µM.
The like results for `COc1cccc(NC(=O)N/C=C/c2ccccc2C(F)(F)F)c1` [Compound 429] were, in that order, 9.1 µM, 16.4 µM and 14.9 µM.
In the case of `COc1cccc(/C=C/NC(=O)Nc2cccc(OC)c2)c1` [Compound 430], the IC50 in data set [1] (Table 2.2) and in data set [3] (Table 2.2) was more than 20 µM throughout.
For the compound `N#Cc1ccc(NC(=O)N/C=C/c2cccc(F)c2)cc1C(F)(F)F` [Compound 433], the IC50 in data set [1] (Table 2.2) turned out to be 1.9 µM; in data set [3] (Table 2.2) it was 3.2 µM; in data set [2] (Table 2.2), 3.9 µM.
Taken in the same sequence, the figures for `CN(C)c1ccc(NC(=O)N/C=C/c2cccc(C(F)(F)F)c2)cc1` [Compound 435] were 13.1 µM, more than 20 µM and 20 µM.
The like results for `O=C(N/C=C/c1cc(C(F)(F)F)ccc1C(F)(F)F)Nc1ccc([N+](=O)[O-])c(C(F)(F)F)c1` [Compound 436] were, in that order, 0.5 µM, 0.8 µM and 0.7 µM.
Consider `O=C(N/C=C/c1cccc(OC(F)(F)F)c1)Nc1ccc([N+](=O)[O-])c(C(F)(F)F)c1` [Compound 437], for which the values for the IC50 in data set [1] (Table 2.2), in data set [3] (Table 2.2) and in data set [2] (Table 2.2) were 1.6 µM, 2.7 µM and 3 µM, respectively.
The like results for `O=C(N/C=C/c1cc(C(F)(F)F)cc(C(F)(F)F)c1)Nc1ccc([N+](=O)[O-])c(C(F)(F)F)c1` [Compound 438] were, in that order, 0.5 µM, 0.6 µM and 0.9 µM.
The like results for `COc1cc([N+](=O)[O-])ccc1NC(=O)N/C=C/c1cccc(C(F)(F)F)c1` [Compound 441] were, in that order, 4.8 µM, 8.3 µM and 6.7 µM.
For the compound `Cc1ccccc1NC(=O)N/C=C/c1cccc(C(F)(F)F)c1` [Compound 445], the IC50 in data set [1] (Table 2.2) is 4.1 µM; in data set [3] (Table 2.2), 5.2 µM; in data set [2] (Table 2.2), 4.8 µM.
Turning to `O=C(N/C=C/c1cccc(C(F)(F)F)c1)Nc1ccc(-n2ccnc2)cc1` [Compound 446], the figures for the IC50 in data set [1] (Table 2.2), in data set [3] (Table 2.2) and in data set [2] (Table 2.2) were 11.1 µM, 18.4 µM and more than 20 µM, respectively.
The like results for `O=C(N/C=C/c1cccc(C(F)(F)F)c1)Nc1ccc([N+](=O)[O-])cc1` [Compound 449] were, in that order, 2.1 µM, 5.3 µM and 3.9 µM.
`O=C(N/C=C/c1cccc([N+](=O)[O-])c1)Nc1ccc([N+](=O)[O-])c(C(F)(F)F)c1` [Compound 456]: the results for the IC50 in data set [1] (Table 2.2), in data set [3] (Table 2.2) and in data set [2] (Table 2.2) were 2 µM, 4.1 µM and 5.2 µM, respectively.
In the case of `Nc1ccc(NC(=O)N/C=C/c2ccc(C(F)(F)F)cc2)cc1` [Compound 462], the IC50 turned out to be 3.5 µM in data set [1] (Table 2.2), 6.3 µM in data set [3] (Table 2.2) and 3.2 µM in data set [2] (Table 2.2).
The like results for `N#Cc1ccc(NC(=O)N/C=C/c2cc(C(F)(F)F)cc(C(F)(F)F)c2)cc1C(F)(F)F` [Compound 463] were, in that order, 1.2 µM, 1 µM and 1.2 µM.
Take `N#Cc1ccc(NC(=O)N/C=C/c2cc(C(F)(F)F)ccc2C(F)(F)F)cc1C(F)(F)F` [Compound 464]: the IC50 in data set [1] (Table 2.2) turned out to be 0.4 µM; in data set [3] (Table 2.2), 0.7 µM; in data set [2] (Table 2.2), 0.4 µM.
Regarding `N#Cc1ccc(NC(=O)Nc2ccc([N+](=O)[O-])c(C(F)(F)F)c2)cc1C(F)(F)F` [Compound 465], the IC50 in data set [1] (LNCaP cells, Table 4.2) turned out to be 4.1 µM; in data set [3] (22Rv1 cells, Table 4.2), 5.2 µM; in data set [2] (DU145 cells, Table 4.2), 5.3 µM.
Regarding `N#Cc1ccc(NC(=O)N/C=C/c2cc(C(F)(F)F)ccc2C(F)(F)F)cc1` [Compound 468], the IC50 in data set [1] (Table 2.2) is 0.9 µM; in data set [3] (Table 2.2) it was 1.9 µM; in data set [2] (Table 2.2) it was 1.5 µM.
Taken in the same sequence, the figures for `N#Cc1ccc(NC(=O)N/C=C/c2cc(C(F)(F)F)cc(C(F)(F)F)c2)cc1` [Compound 469] were 1 µM, 1.9 µM and 1.7 µM.
Take `N#Cc1ccc(NC(=O)N/C=C/c2cc(C(F)(F)F)ccc2C(F)(F)F)cn1` [Compound 480]: the IC50 in data set [3] (Table 2.1) came to 1.8 µM; in data set [2] (Table 2.1), 1.7 µM.
Taken in the same sequence, the figures for `N#Cc1ccc(NC(=O)N/C=C/c2cc(C(F)(F)F)ccc2C(F)(F)F)nc1` [Compound 481] were 2.6 µM and 0.8 µM.
Take `N#Cc1ccc(NC(=O)N/C=C/c2cc(C(F)(F)F)cc(C(F)(F)F)c2)nc1` [Compound 483]: the results for the IC50 in data set [3] (Table 2.1) and in data set [2] (Table 2.1) were 2.3 µM and 2 µM, respectively.
For the compound `N#Cc1ccc(NC(=O)Nc2cc(C(F)(F)F)cc(C(F)(F)F)c2)cc1C(F)(F)F` [Compound 494], the IC50 was 0.3 µM in data set [1] (LNCaP cells, Table 4.2); 1.6 µM in data set [3] (22Rv1 cells, Table 4.2); 1.5 µM in data set [2] (DU145 cells, Table 4.2).
`O=C(N/C=C/c1cc(C(F)(F)F)cc(C(F)(F)F)c1)Nc1ncccn1` [Compound 531]: the IC50 in data set [1] (Table 2.1) and in data set [2] (Table 2.1) was less than 1 µM each time.
For the compound `O=C(N/C=C/c1cc(C(F)(F)F)cc(C(F)(F)F)c1)Nc1nccc(C(F)(F)F)n1` [Compound 538], the results for the IC50 in data set [1] (Table 2.1) and in data set [2] (Table 2.1) were less than 1 µM and 1.2 µM, respectively.
Regarding `O=C(Nc1cccc(C(F)(F)F)c1)Nc1ccccc1NC(=O)Nc1cccc(C(F)(F)F)c1` [Compound 967], the figures for the IC50 at 72 h in data set [4] and in data set [5] were 2.7 µM and 3.1 µM, respectively.
